According to paper PMC6194148, “Phenylindanes in Brewed Coffee Inhibit Amyloid-Beta and Tau Aggregation” (Frontiers in Neuroscience, 2018):
Read-outs that look alike come from different tables or passages of the source.

Tests used:
Format in all cases: biochemical
amyloid-beta (Aβ) [1] = molecular target: T1, amyloid-beta (Aβ) (Homo sapiens, UniProt P05067); assay: Aβ oligomerization ELISA (biotinylated Aβ[…]-42); also ThT fibrillization, […] inhibition at […]; parameters: gene APP; biotinylated Aβ1-42 (oligomerization); Aβ1-40 (fibrillization)
Target sequence in this assay (P05067 672-713): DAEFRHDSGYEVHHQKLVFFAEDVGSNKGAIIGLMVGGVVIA

amyloid-beta (Aβ) [2] = molecular target: T1, amyloid-beta (Aβ); assay: ThT fluorescence fibrillization assay at […]; no inhibition of Aβ oligomerization; parameters: gene APP; Aβ1-40; conditions: read-out: Aβ fibril inhibition (%)
Target sequence in this assay (P05067 672-711): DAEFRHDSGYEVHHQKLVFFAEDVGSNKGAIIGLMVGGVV

amyloid-beta (Aβ) [3] = molecular target: T1, amyloid-beta (Aβ); assay: Aβ oligomerization ELISA (biotinylated Aβ[…]-42); also ThT fibrillization, […] inhibition at […]; parameters: gene APP; biotinylated Aβ1-42 (oligomerization); Aβ1-40 (fibrillization); remark: listed apart in the source
Target sequence in this assay (P05067 672-713): as the sequence (P05067 672-713) above

tau (tau40) = molecular target: T2, tau (tau40) (Homo sapiens, UniProt P10636); assay: ThS fluorescence fibrillization assay (heparin-containing buffer); […] inhibition at […], […] at […]; conditions: read-out: Tau fibril inhibition (%)
T2 construct: gene MAPT; Human tau40, tag-free, expressed in E. coli
T2 sequence (P10636 2-441 isoform P10636-8): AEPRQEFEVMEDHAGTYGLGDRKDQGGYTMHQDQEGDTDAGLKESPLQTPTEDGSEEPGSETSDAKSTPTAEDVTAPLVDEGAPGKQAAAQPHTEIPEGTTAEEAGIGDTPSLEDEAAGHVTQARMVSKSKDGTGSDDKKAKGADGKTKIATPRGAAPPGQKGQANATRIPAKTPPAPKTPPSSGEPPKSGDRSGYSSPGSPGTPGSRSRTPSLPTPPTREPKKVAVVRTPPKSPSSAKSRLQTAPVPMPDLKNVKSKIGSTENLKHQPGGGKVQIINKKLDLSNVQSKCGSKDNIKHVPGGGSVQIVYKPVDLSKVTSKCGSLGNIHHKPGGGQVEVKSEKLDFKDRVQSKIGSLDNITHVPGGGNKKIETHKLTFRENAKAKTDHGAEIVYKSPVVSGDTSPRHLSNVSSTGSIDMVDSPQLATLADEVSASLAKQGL

Structure (SMILES): O=c1c(O)c(-c2ccc(O)c(O)c2)oc2cc(O)cc(O)c12 [compound 5, Quercetin]
- IC50 (amyloid-beta (Aβ) [1]): 10.3 ± 1.1 µM

Structure (SMILES): O=C(O)/C=C/c1ccc(O)c(O)c1 [compound 4, Caffeic acid]
- inhibition at 100 µM (amyloid-beta (Aβ) [2]): 99.4 ± 0.9%

Structure (SMILES): CC1CC(c2ccc(O)c(O)c2)c2cc(O)c(O)cc21 (mixture of isomers) [compound 6, Phenylindane]
- IC50 (amyloid-beta (Aβ) [3]): 42.1 ± 1.4 µM
- inhibition at 100 µM (tau (tau40)): 95.2 ± 1.7%

Structure (SMILES): O=C(/C=C/c1ccc(O)c(O)c1)O[C@@H]1C[C@](O)(C(=O)O)C[C@@H](O)[C@H]1O [compound 2, Chlorogenic acid]
- inhibition at 100 µM (amyloid-beta (Aβ) [2]): 97.7 ± 0.7%
